{
  "source": "patent US20190136195A1",
  "about": "“COMPOSITION FOR TREATING TENDONITIS AND MANUFACTURE THEREOF” (Gwo Xi Stem Cell Applied Technology Co., Ltd., priority 2016, published 2019)",
  "assay_type_in_all_cases": "cell-based, Human",
  "key": {"[1]": {"test_system": "COL1 protein (collagen, COL1A1)", "assay": "Protein expression of COL1A1 in hADSC", "conditions": "hADSC at 1×10^5 cell/ml, 2.5 μg/ml, 96 or 168 hours", "method": "(§1) 20 ml of 1.0×10^5 or 0.2×10^5 cells/ml hADSCs in DMEM medium (10% fetal bovine serum, 1% L-glutamine, 1% non-essential amino acid (NEAA), and 1% sodium pyruvate) was placed on a 15-cm dish, mixed with 2.5 μg/ml butylidenephthalide, and then incubated at 37° C. in a 5% CO2 incubator for 96 hours. After the medium was removed and replaced with fresh medium, hADSCs was cultured under the same condition as described above until 168 hours."}, "COL1A1": {"test_system": "COL1A1", "assay": "mRNA expression of tendon healing factors in hADSC: COL1A1", "conditions": "hADSC at 1×10^5 cell/ml, 2.5 μg/ml, 96 or 168 hours", "method": "as §1"}, "SCX": {"test_system": "SCX", "assay": "mRNA expression of tendon healing factors in hADSC: SCX", "conditions": "hADSC at 1×10^5 cell/ml, 2.5 μg/ml, 96 or 168 hours", "method": "as §1"}, "hADSCs": {"test_system": "hADSCs", "assay": "Cell activity (MTT cell viability) of hADSC with butylidenephthalide", "conditions": "24 and 48 hours", "method": "hADSCs were seeded on a 96-well plate at a density of 3×10^3 cell/100 μl, and the 96-well plate was incubated at 37° C. in a humidified 5% CO2 atmosphere. After 16 hours, butylidenephthalide of various concentrations was added to the 96-well plate and then incubated at 37° C. in a 5% CO2 incubator. After 24 and 48 hours, the cell viability was determined. In cell viability assay, 100 μl of 10% MTT reagent was added to each well and then incubated in an incubator for 2 hours. 150 μl DMSO was added and mixed for 15 minutes. The absorbance (OD) of the aqueous solution was determined at 570 nm. According to FIG. 1, butylidenephthalide would not affect the cell activity if its concentration was blow 5 μg/ml. Therefore, 2.5 μg/ml of butylidenephthalide was selected to be used in the following experiments."}},
  "note": "Entries after “also recorded” stand apart in the source; their conditions may differ.",
  "data": [
    {"smiles": "CCCC=C1OC(=O)c2ccccc21", "note": "[butylidenephthalide, Butylidenephthalide]", "values": [
      {"measurement": "COL1A1 protein expression", "setting": "[1]", "result": "increased, significantly; also recorded: significant increase"},
      {"measurement": "COL1A1 mRNA expression", "setting": "COL1A1", "result": "increased, significantly; also recorded: significant increase"},
      {"measurement": "SCX mRNA expression", "setting": "SCX", "result": "increased, significantly; also recorded: significant increase"},
      {"measurement": "concentration that would not affect the cell activity (MTT)", "setting": "hADSCs", "result": "< 5000", "unit": "ng/mL"}
    ]}
  ]
}
